# Data published in ChEMBL document CHEMBL1141278, “Naamidines H and I, cytotoxic imidazole alkaloids from the Indonesian marine sponge Leucetta chagosensis” (J Nat Prod, 2007).
# Activity calls are given as the source filed them. No cut-off for these calls is given here.
# Assays:
# [1] = tested on: HeLa; experiment: Cytotoxicity against human HeLa cells by MTT assay; format: functional, cell-based
# [2] = tested on: Escherichia coli; experiment: Antimicrobial activity against Escherichia coli at 50 ug/6 mm disk by paper disk method; format: functional, organism-based
SMILES,IC50 [1] [µg/mL],Activity [2]
COc1ccc(Cc2[nH]/c(=N\C3=NC(=O)N(C)C3=O)n(C)c2Cc2cc(OC)c(O)c(OC)c2)cc1 [NAAMIDINE H],5.6,inactive
C/N=C1N=C(/N=c2\[nH]c(Cc3ccc(OC)cc3)c(Cc3cc(OC)c(O)c(OC)c3)n2C)C(=O)N\1C [NAAMIDINE I],15,inactive
